Where two headings read alike, the source gives them in different places.
Key:
[1] = target: T1, human 5-HT2A (Homo sapiens, UniProt P28223); experiment: Calcium (FLIPR) assay, agonist activity at human 5-HT2A; type: cell-based
T1 construct: expressed in transfected cells; host or cells: Flp-In-CHO cell line
Method: With regard to 5-HT2A, the agonistic or inhibitory activity of 5-HT2A of compounds was determined using the Flp-In™-CHO cell line expressing human 5-HT2A. Cells were cultured with Ham’s F-12K (Kaighn’s) medium supplemented with 10% FBS, penicillin (100 U/ml), streptomycin (100 μg/ml), and hygromycin B (600 μg/ml) at 37°C in an atmosphere of 95% air and 5% CO2. Cells were stimulated with different concentrations of compounds for 2 h at 37°C after seeding in 384-well microplates. For the determination of agonistic activity, serotonin was used as the MAX control. In the determination of inhibitory activity, ketanserin was used as the MAX control.

[2] = target: T2, human dopamine D2L receptors (Homo sapiens, UniProt P14416); experiment: cAMP assay, inhibition at human dopamine D2L receptors; type: cell-based
T2 construct: expressed in transfected cells; host or cells: Flp-In-CHO cells
T2 sequence (P14416 whole entry): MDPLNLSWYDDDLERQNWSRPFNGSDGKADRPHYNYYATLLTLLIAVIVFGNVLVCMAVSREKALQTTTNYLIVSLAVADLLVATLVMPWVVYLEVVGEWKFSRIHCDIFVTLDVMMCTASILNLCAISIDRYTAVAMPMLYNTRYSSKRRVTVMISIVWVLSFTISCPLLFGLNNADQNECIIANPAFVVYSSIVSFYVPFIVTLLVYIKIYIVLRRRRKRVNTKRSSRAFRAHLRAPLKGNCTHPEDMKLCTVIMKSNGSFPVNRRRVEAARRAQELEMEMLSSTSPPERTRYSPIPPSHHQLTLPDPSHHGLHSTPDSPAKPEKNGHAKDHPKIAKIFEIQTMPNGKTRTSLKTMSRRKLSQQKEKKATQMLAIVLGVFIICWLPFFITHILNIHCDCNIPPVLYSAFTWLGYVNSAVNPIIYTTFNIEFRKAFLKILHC
Method: With regard to D2L and D2S, recombinant Flp-In™-CHO cells expressing human dopamine D2L receptors or D2S receptors were cultured with Ham’s F-12K (Kaighn’s) medium supplemented with 10% FBS, penicillin (100 U/ml), streptomycin (100 μg/ml), and hygromycin B (600 μg/ml) at 37°C in an atmosphere of 5% CO2. The methods of cell inoculation and compound treatment were the same as those for TAAR1, and haloperidol was used as the MAX control. Percentage inhibition was calculated using the following equation: Inhibition %=mean RLUtest sample−mean RLUvehicle control/mean RLUMAX control−mean RLUvehicle control×100%.

[3] = Pharmacokinetics study in rats; type: in vivo, Sprague–Dawley rats
Method: Compound 50B was dissolved in physiologic (0.9%) saline. Male and female rats were fasted overnight before dosing to avoid the possible effects of food. Compound 50B was administered via intragastric (5 mg/kg) and intravenous (2 mg/kg) routes to female and male rats. Approximately 200 μL of whole blood was collected into heparin-coated tubes at 0.083, 0.25, 0.5, 1, 2, 3, 4, 6, 8, 12, and 24 h after dosing. Plasma was collected immediately by centrifugation (8,000 g, 5 min, room temperature). Blood was placed in a heparinized Eppendorf™ tube. Plasma was centrifuged, and the concentration of compounds in the sample was determined by LC-MS/MS after pre-treatment. Drug-concentration data were processed in a […] using WinNonlin™ 6.3 (Pharsight, Mountain View, CA, United States).

[4] = Tissue distribution (brain and plasma) in rats; type: in vivo, Sprague–Dawley rats
Method: Rats (three males and three females) were sacrificed at 0.25, 1, or 6 h after administration of 50B (5 mg/kg, i.g.). Blood and brain tissues were harvested. The concentration of compounds in all tissue and blood samples was determined by LC-MS/MS. Drug concentration data were processed in a non-atrioventricular model using WinNonlin™ 6.3.

[5] = test system: MK801-induced schizophrenia-like behavior; experiment: MK801-induced schizophrenia-like behavior (open field, distance traveled); type: in vivo, C57BI/6J mice
Method: Ninety-nine male C57BI/6J mice were divided randomly into 11 groups. Mice were placed in a room 1 h before testing. They were administered (p.o.) vehicle (0.1 ml/10 g), 50A (0.3, 1, 3, and 10 mg/kg; 0.1 ml/10 g), or 50B (0.3, 1, 3, and 10 mg/kg; 0.1 ml/10 g). […] Then, mice were administered (i.p.) MK801 (0.8 mg/kg dissolved in physiologic saline; 0.1 ml/10 g). After 30 min, the distance that mice traveled was measured.
Forty-six male C57BI/6J mice were divided randomly into four groups. The CN group contained four mice. […] The administration method described previously was employed.

[6] = test system: catalepsy; experiment: Catalepsy assay (bar test); type: in vivo, C57BI/6J mice; details: 100 mg/kg p.o., 30 and 90 min after administration
Method: Twenty-four male C57BI/6J mice were divided randomly into four groups. Mice were placed in a room 1 h before testing. […] The front paws of mice were placed on a horizontal metal bar raised 2 inches above a Plexiglas™ platform 30 min and 90 min after administration. The time the front paws of mice were placed on the platform was recorded at ≤30 s per trial. Each test was repeated three times.

[7] = Permeability and transporter substrate evaluation in Caco-2 cells; type: in vitro ADME; details: human
Method: Cells were seeded into 96-well cell plates and cultured continuously for 24 days for subsequent experiments. Compounds were administered with or without verapamil (2 µM). […] The […] content in each sample was measured by liquid chromatography–tandem mass spectrometry (LC-MS/MS). The apparent permeability coefficient and the efflux ratio were calculated.

[8] = target: T3, hERG (Homo sapiens, UniProt Q12809); experiment: hERG assay (electrophysiological recording, CHO cells stably expressing hERG); type: cell-based; details: up to a maximum concentration of 30 μM
T3 construct: expressed in transfected cells; host or cells: CHO cells stably expressing hERG
T3 sequence (Q12809 whole entry): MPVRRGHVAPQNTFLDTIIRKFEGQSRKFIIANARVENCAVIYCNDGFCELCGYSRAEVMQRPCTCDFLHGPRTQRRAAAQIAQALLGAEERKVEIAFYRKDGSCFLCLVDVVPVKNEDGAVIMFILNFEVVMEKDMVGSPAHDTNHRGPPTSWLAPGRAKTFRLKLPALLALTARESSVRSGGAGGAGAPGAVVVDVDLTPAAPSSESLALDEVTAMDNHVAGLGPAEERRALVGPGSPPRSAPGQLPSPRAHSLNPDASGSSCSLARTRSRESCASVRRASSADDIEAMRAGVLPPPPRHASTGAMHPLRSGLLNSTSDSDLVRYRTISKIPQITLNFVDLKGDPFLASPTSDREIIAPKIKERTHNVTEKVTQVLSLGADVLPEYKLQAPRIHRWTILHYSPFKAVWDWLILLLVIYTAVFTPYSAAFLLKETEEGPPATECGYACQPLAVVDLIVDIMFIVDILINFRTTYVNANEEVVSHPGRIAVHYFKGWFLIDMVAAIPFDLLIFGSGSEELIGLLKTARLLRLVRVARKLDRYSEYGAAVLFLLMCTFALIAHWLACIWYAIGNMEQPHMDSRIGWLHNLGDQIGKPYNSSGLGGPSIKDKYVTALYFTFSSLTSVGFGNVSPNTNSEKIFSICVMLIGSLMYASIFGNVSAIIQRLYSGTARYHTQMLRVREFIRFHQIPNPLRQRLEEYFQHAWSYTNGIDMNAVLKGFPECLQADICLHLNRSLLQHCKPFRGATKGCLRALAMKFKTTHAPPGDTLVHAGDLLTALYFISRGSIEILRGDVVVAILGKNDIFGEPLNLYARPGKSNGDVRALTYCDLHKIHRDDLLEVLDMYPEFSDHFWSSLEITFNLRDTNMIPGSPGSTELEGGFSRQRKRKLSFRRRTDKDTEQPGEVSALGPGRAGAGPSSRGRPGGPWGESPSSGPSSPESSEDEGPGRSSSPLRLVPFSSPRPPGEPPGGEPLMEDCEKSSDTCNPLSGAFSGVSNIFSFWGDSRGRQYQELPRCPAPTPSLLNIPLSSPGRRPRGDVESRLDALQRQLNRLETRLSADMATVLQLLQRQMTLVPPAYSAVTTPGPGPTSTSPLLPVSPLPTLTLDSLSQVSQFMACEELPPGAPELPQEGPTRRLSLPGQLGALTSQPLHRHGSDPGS
Method: CHO cells stably expressing hERG cultured with DMEM/F12 supplemented with 10% FBS, penicillin (100 U/ml), and streptomycin (100 μg/ml) were cultured in cell culture dishes (diameter = 35 mm) in an incubator at 37°C in an atmosphere of 5% CO2. They were passaged at a ratio of 1:5 every 48 h. The medium comprised 90% F12, 10% FBS, G418 (100 μg/ml), and hygromycin B (100 μg/ml). On the day of the assay, the cell culture medium was aspirated and washed with an extracellular solution. Then, 0.25% Trypsin–EDTA solution was added, and digestion was allowed for 3–5 min at room temperature. Digestive juice was aspirated, and cells were transferred to the experimental dish for electrophysiological recording after resuspension with the extracellular solution for future use.

[9] = Sprague-Dawley, rat, plasma, iv, male rats, 2 mg/kg
[10] = Sprague-Dawley, rat, plasma, po, male rats, 5 mg/kg, i.g.
[11] = male, Sprague-Dawley, rat, plasma, po, 5 mg/kg, i.g.

T1 sequence (P28223 whole entry): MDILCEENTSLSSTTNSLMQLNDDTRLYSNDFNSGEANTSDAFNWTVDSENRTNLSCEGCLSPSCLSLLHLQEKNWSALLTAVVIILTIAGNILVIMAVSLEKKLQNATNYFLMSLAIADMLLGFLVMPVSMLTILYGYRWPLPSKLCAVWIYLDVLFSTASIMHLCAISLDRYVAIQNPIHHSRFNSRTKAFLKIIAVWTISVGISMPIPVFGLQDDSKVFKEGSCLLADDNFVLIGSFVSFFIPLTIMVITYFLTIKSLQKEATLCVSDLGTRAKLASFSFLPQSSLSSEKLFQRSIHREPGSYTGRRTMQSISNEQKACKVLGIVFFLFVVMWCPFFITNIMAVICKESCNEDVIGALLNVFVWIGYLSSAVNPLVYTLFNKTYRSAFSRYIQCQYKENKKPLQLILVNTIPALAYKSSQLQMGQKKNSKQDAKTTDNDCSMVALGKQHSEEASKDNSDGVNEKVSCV

Compound: c1csc([C@@H]2CNCCO2)c1 [Compound 50B]
- EC50 [1]: 61.2 µM
- Emax ([1]; serotonin as MAX control, up to 100 μM, read-out: 5-HT2A agonism Emax): 54.9%
- IC50 [2]: > 100 µM
- Emax ([2]; haloperidol as MAX control, up to 100 μM, read-out: dopamine D2L antagonist Emax): 5.49%
- Cmax [3, 9]: 6.8 µM
- MRT last [3, 9]: 1.46 ± 0.231 h
- Cmax [3, 10]: 4.38 µM
- MRT last [3, 10]: 3.03 ± 0.625 h
- CL/F ([3]; Sprague-Dawley, rat, plasma, po, male rats, 5 mg/kg, i.g., read-out: CL/F (converted)): 26 mL/min/kg
- Vd/F ([3]; Sprague-Dawley, rat, plasma, po, male rats, 5 mg/kg, i.g., read-out: Vz/F): 2.86 ± 0.104 L/kg
- CL/F ([3]; male rats, 2 mg/kg, i.v.): 22.2 ± 3.52 mL/min/kg
- Vz/F ([3]; male rats, 2 mg/kg, i.v.): 2.48 ± 0.485 L/kg
- AUC(0-t) ([3]; male rats, 5 mg/kg, i.g.): 18,929 ± 1774 h* nM
- T1/2 ([3]; male rats, 5 mg/kg, i.g.): 1.28 ± 0.140 h
- half-life ([3]; male, Sprague-Dawley, rat, plasma, iv, 2 mg/kg): 1.31 ± 0.313 h
- AUC(0-t) ([3]; male, Sprague-Dawley, rat, plasma, iv, 2 mg/kg, i.v., read-out: AUC0-t): 8.98 µM·h
- bioavailability ([3]; male, Sprague-Dawley, rat, plasma, oral, 5 mg/kg, i.g. vs 2 mg/kg i.v., read-out: F (oral bioavailability)): ~84.3%
- Tmax [3, 11]: ~0.833 h
- half-life [3, 11]: ~1.28 h
- AUC(0-t) ([3]; male, Sprague-Dawley, rat, plasma, po, 5 mg/kg, i.g., read-out: AUC0-t): ~18.9 µM·h
- Concentration ratio brain to plasma compared with SEP-856 ([4]; rats, 5 mg/kg i.g.): increased significantly compared with that of SEP-856
- Plasma concentration compared with SEP-856 ([4]; rats, 5 mg/kg i.g., same time point): lower than that of SEP-856
- Detection in rat brain ([4]; single intragastric administration, 5 mg/kg, 0.25 to 6 h): detected in rat brains from 0.25 to 6 h
- MK801-induced increase in distance traveled ([5]; mice, 10 mg/kg p.o., MK801 0.8 mg/kg i.p.): significantly reduced
- Inhibition of MK801-induced schizophrenia-like behavior (effective doses) ([5]; mice, single oral dose 0.3, 1, 3 and 10 mg/kg, MK801 0.8 mg/kg i.p.): markedly at 1, 3, and 10 mg/kg
- Distance moved by mice in the presence or absence of MK801 ([5]; single oral dose 0.3, 1, 3 and 10 mg/kg): significantly reduced the distance moved by mice
- Time mice spent holding bars (catalepsy) [6]: did not increase this time
- efflux ratio at 120 min ([7]; Caco-2): 0.781
- Papp A→B at 120 min ([7]; Caco-2, 120 min incubation): 35.2 ×10⁻⁶ cm/s
- Papp B→A at 120 min ([7]; Caco-2, 120 min incubation): 27.5 ×10⁻⁶ cm/s
- hERG cardiotoxicity [8]: not cardiotoxic
